This passage reports Ki results from patent US11530186B2, “Inhibitors for the β-catenin / T-cell factor protein-protein interaction” (H. LEE MOFFITT CANCER CENTER AND RESEARCH INSTITUTE, INC., priority 2018, dated 2022).

SMILES strings stand for the structures. Where two headings read alike, the source gives them in different places.

The assay deals with T1, β-catenin/Tcf protein-protein interaction (Homo sapiens, UniProt P35222).
T1 construct: Wild-type β-catenin (residues 138-781) were cloned into a pET-28b vector; 6×histidine (C); made in house; host or cells: E. coli BL21 DE3
T1 sequence (P35222 138-781): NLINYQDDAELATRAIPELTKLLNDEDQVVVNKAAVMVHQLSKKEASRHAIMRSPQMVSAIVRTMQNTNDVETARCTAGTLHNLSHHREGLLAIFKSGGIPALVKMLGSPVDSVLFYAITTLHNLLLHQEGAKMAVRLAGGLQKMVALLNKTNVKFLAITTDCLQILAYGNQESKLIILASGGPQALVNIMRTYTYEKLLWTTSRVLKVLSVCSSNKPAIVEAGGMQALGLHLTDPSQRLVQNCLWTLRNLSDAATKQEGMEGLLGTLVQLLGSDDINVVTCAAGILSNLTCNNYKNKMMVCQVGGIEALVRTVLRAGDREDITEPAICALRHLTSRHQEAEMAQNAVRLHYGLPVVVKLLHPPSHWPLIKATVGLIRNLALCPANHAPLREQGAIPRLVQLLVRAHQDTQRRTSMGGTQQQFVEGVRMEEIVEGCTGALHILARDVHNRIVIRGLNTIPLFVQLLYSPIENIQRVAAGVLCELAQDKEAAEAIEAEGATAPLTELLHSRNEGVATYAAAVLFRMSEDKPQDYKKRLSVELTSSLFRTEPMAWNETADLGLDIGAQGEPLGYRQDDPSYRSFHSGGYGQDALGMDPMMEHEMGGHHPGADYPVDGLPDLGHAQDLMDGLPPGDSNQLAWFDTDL
Description: FP competitive inhibition assay. The assay is classed as binding. In short, it runs like this:
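His-tagged human β-catenin (residues 138-781, E. coli-expressed) at 10 nM with 2.5 nM fluorescein-labeled Tcf4 (7-51) in PBS-type buffer with bovine γ-globulin and 0.01% Triton X-100. Compounds added, 1.5 h at 4 °C, 1% DMSO, before fluorescence polarization read. IC50 by nonlinear fit; Ki derived from IC50.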

Take `O=C(O)c1ccc2c(c1)c(CCc1ccc(Cl)cc1)c(CCc1nc3ccccc3s1)n2CCc1nn[nH]n1` [Compound 27, 1-(2-(2H-tetrazol-5-yl)ethyl)-2-(2-(benzo[d]thiazol-2-yl)ethyl)-3-(4-chlorophenethyl)-1H-indole-5-carboxylic acid]: the Ki came out at 3.3 ± 0.64 µM (Assay 1, mean ± SD (n = 3), read-out: Ki ± SD, Assay 1); 1.3 ± 0.38 µM (Assay 2, mean ± SD (n = 3), read-out: Ki ± SD, Assay 2); 5.6 ± 1.8 µM (Assay 3, mean ± SD (n = 3), read-out: Ki ± SD, Assay 3).

One may read the Ki as a dissociation constant, usually derived from enzyme kinetics or from competition with a known ligand.
